≈ marks a conversion by molar mass, not a printed value.
How the values were obtained:
[1] = AUC in male rat at 10 mg/kg, po after 7 days; format: ADME, organism-based; parameters: dose 10 mg/kg, route oral; details: plasma
[2] = Clearance in dog at 1 mg/kg, iv; format: ADME, organism-based, Canis lupus familiaris; parameters: dose 1 mg/kg, route intravenous; details: in vivo
[3] = Cmax in female dog at 2 mg/kg, po dosed as normal particles; format: ADME, organism-based, Canis lupus familiaris; parameters: dose 2 mg/kg, route oral; details: in vivo
[4] = AUC in rat at 2 mg/kg, iv; format: ADME, organism-based; parameters: dose 2 mg/kg, route intravenous; details: plasma
[5] = Cmax in male rat at 100 mg/kg, po after 7 days; format: ADME, organism-based; parameters: dose 100 mg/kg, route oral; details: in vivo
[6] = Metabolic stability in dog liver microsomes; format: ADME, Canis lupus familiaris, Microsome; details: read-out: Stability
[7] = AUC in male rat at 100 mg/kg, po after 7 days; format: ADME, organism-based; parameters: dose 100 mg/kg, route oral; details: plasma
[8] = Cmax in female rat at 10 mg/kg, po after 1 day; format: ADME, organism-based; parameters: dose 10 mg/kg, route oral; details: in vivo
[9] = Cmax in female rat at 500 mg/kg, po after 1 day; format: ADME, organism-based; parameters: dose 500 mg/kg, route oral; details: in vivo
[10] = Cmax in male rat at 10 mg/kg, po after 7 days; format: ADME, organism-based; parameters: dose 10 mg/kg, route oral; details: in vivo
[11] = AUC in dog at 1 mg/kg, po; format: ADME, organism-based, Canis lupus familiaris; parameters: dose 1 mg/kg, route oral; details: plasma
[12] = Cmax in dog at 1 mg/kg, po; format: ADME, organism-based, Canis lupus familiaris; parameters: dose 1 mg/kg, route oral; details: in vivo
[13] = Cmax in female rat at 100 mg/kg, po after 1 day; format: ADME, organism-based; parameters: dose 100 mg/kg, route oral; details: in vivo
[14] = Cmin (24 hrs) in male rat at 500 mg/kg, po after 1 day; format: ADME, organism-based; parameters: dose 500 mg/kg, route oral; details: in vivo, read-out: Cmin
[15] = Cmax in male rat at 10 mg/kg, po after 1 day; format: ADME, organism-based; parameters: dose 10 mg/kg, route oral; details: in vivo
Hepatitis C virus [16] = assay: Ratio of EC50 for HCV genotype 1b isolate con1 in presence of human serum albumin to EC50 for HCV genotype 1b isolate con1 in presence of fetal bovine serum; format: functional, Hepacivirus hominis
[17] = Drug concentration in rat liver at 5 mg/kg, po after 2 hrs; format: ADME, organism-based; parameters: dose 5 mg/kg, route oral; details: read-out: Drug uptake
serum albumin = serum albumin (Homo sapiens, UniProt P02768); assay: Binding affinity to human serum albumin; format: ADME; details: read-out: PB (converted)
Sequence of serum albumin (P02768 whole entry): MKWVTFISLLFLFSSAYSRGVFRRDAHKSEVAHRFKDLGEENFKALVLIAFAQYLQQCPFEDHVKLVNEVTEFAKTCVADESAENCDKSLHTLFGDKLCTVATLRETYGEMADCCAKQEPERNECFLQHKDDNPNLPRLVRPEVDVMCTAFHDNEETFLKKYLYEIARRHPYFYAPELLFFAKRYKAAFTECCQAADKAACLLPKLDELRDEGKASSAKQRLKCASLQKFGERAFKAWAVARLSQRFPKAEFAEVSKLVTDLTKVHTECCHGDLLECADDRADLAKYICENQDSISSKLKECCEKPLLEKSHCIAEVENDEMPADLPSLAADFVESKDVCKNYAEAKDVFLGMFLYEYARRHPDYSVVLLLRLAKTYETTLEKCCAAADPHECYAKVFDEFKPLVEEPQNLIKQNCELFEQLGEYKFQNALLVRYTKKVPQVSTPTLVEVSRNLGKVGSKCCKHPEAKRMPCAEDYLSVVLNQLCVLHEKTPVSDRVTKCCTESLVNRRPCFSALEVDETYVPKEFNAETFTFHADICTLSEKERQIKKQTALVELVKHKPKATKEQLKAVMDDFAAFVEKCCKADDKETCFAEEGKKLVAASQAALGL

[18] = Cmax in female rat at 500 mg/kg, po after 7 days; format: ADME, organism-based; parameters: dose 500 mg/kg, route oral; details: in vivo
Hepatitis C virus [19] = assay: Antiviral activity against HCV genotype 1b isolate con1 infected in human 2209-23 cells assessed as inhibition of [3H]thymidine incorporation into DNA by scintillation proximity assay in presence of 5% fetal bovine serum; format: functional, organism-based, Hepacivirus hominis; details: isolate Con1, 2209-23
[20] = AUC in female rat at 500 mg/kg, po after 7 days; format: ADME, organism-based; parameters: dose 500 mg/kg, route oral; details: plasma
[21] = AUC (0 to 24 hrs) in male rat at 100 mg/kg, po after 1 day; format: ADME, organism-based; parameters: time < 24 hr, dose 100 mg/kg, route oral; details: plasma
[22] = Cmax in female dog at 2 mg/kg administered intraduodenally as cannula dose; format: ADME, organism-based, Canis lupus familiaris; parameters: dose 2 mg/kg, route intraduodenal; details: in vivo
[23] = Cmax in dog at 1 mg/kg, iv; format: ADME, organism-based, Canis lupus familiaris; parameters: dose 1 mg/kg, route intravenous; details: in vivo
[24] = AUC (0 to 24 hrs) in female rat at 100 mg/kg, po after 1 day; format: ADME, organism-based; parameters: time < 24 hr, dose 100 mg/kg, route oral; details: plasma
[25] = AUC (0 to 24 hrs) in male rat at 500 mg/kg, po after 1 day; format: ADME, organism-based; parameters: time < 24 hr, dose 500 mg/kg, route oral; details: plasma
[26] = AUC (0 to 24 hrs) in female rat at 10 mg/kg, po after 1 day; format: ADME, organism-based; parameters: time < 24 hr, dose 10 mg/kg, route oral; details: plasma
[27] = AUC in female rat at 10 mg/kg, po after 7 days; format: ADME, organism-based; parameters: dose 10 mg/kg, route oral; details: plasma
[28] = Cmax in male rat at 500 mg/kg, po after 7 days; format: ADME, organism-based; parameters: dose 500 mg/kg, route oral; details: in vivo
[29] = Half life in dog at 1 mg/kg, iv; format: ADME, organism-based, Canis lupus familiaris; parameters: dose 1 mg/kg, route intravenous; details: in vivo
[30] = Cmin (24 hrs) in male rat at 100 mg/kg, po after 1 day; format: ADME, organism-based; parameters: dose 100 mg/kg, route oral; details: in vivo, read-out: Cmin
[31] = Cmax in male rat at 500 mg/kg, po after 1 day; format: ADME, organism-based; parameters: dose 500 mg/kg, route oral; details: in vivo
Hepatitis C virus [32] = assay: Antiviral activity against HCV genotype 1b isolate con1 infected in human 2209-23 cells assessed as inhibition of [3H]thymidine incorporation into DNA by scintillation proximity assay in presence of 40% human serum albumin; format: functional, organism-based, Hepacivirus hominis; details: isolate Con1, 2209-23
[33] = AUC (0 to 24 hrs) in male rat at 10 mg/kg, po after 1 day; format: ADME, organism-based; parameters: time < 24 hr, dose 10 mg/kg, route oral; details: plasma
[34] = Metabolic stability in rat liver microsomes; format: ADME, Microsome; details: read-out: Stability
[35] = Toxicity in rat assessed as adverse effects after 7 days; format: organism-based; details: in vivo
[36] = Drug concentration in rat liver at 5 mg/kg, po after 6 hrs; format: ADME, organism-based; parameters: dose 5 mg/kg, route oral; details: read-out: Drug uptake
[37] = Cmax in male rat at 100 mg/kg, po after 1 day; format: ADME, organism-based; parameters: dose 100 mg/kg, route oral; details: in vivo
Caco-2 = assay: Efflux ratio of permeability from […] side in human Caco-2 cells after 21 days; format: ADME, cell-based; details: caco-2, 504 h
[38] = Cmin (24 hrs) in female rat at 500 mg/kg, po after 1 day; format: ADME, organism-based; parameters: dose 500 mg/kg, route oral; details: in vivo, read-out: Cmin
[39] = AUC in female rat at 100 mg/kg, po after 7 days; format: ADME, organism-based; parameters: dose 100 mg/kg, route oral; details: plasma
[40] = Ratio of drug level from liver to plasma in po dosed rat after 24 hrs; format: ADME, organism-based
[41] = Half life in dog at 1 mg/kg, po; format: ADME, organism-based, Canis lupus familiaris; parameters: dose 1 mg/kg, route oral; details: in vivo
[42] = AUC in dog at 1 mg/kg, iv; format: ADME, organism-based, Canis lupus familiaris; parameters: dose 1 mg/kg, route intravenous; details: plasma
[43] = Half life in rat at 2 mg/kg, iv; format: ADME, organism-based; parameters: dose 2 mg/kg, route intravenous; details: in vivo
[44] = Cmax in female dog at 2 mg/kg, po dosed as nanosized particles; format: ADME, organism-based, Canis lupus familiaris; parameters: dose 2 mg/kg, route oral; details: in vivo
Hepatocyte = assay: Metabolic stability in rat hepatocytes assessed per 10^6 cells; format: ADME, cell-based
Hepatitis C virus [45] = assay: Inhibition of HCV genotype 1b isolate con1 NS5B polymerase assessed as incorporation of radiolabeled nucleotide into RNA product; parameters: species or system Hepacivirus hominis
[46] = Cmax in rat at 2 mg/kg, iv; format: ADME, organism-based; parameters: dose 2 mg/kg, route intravenous; details: in vivo
[47] = Cmax in rat at 5 mg/kg, po; format: ADME, organism-based; parameters: dose 5 mg/kg, route oral; details: in vivo
[48] = Solubility of the compound; format: physicochemical
[49] = Cmax in female rat at 10 mg/kg, po after 7 days; format: ADME, organism-based; parameters: dose 10 mg/kg, route oral; details: in vivo
[50] = AUC in male rat at 500 mg/kg, po after 7 days; format: ADME, organism-based; parameters: dose 500 mg/kg, route oral; details: plasma
[51] = AUC (0 to 24 hrs) in female rat at 500 mg/kg, po after 1 day; format: ADME, organism-based; parameters: time < 24 hr, dose 500 mg/kg, route oral; details: plasma
[52] = Cytotoxicity against human 2209-23 cells by WST1 assay; format: cell-based
[53] = Clearance in rat at 2 mg/kg, iv; format: ADME, organism-based; parameters: dose 2 mg/kg, route intravenous; details: in vivo
[54] = Cmax in female rat at 100 mg/kg, po after 7 days; format: ADME, organism-based; parameters: dose 100 mg/kg, route oral; details: in vivo
[55] = Cmin (24 hrs) in female rat at 100 mg/kg, po after 1 day; format: ADME, organism-based; parameters: dose 100 mg/kg, route oral; details: in vivo, read-out: Cmin

- AUC at 168 h [1]: 34.4 ng·h/mL
- clearance [2]: 19 mL/min/kg
- Cmax [3]: < 15 ng/mL
- AUC [4]: 158 ng·h/mL
- Cmax [5]: 21.1 ng/mL
- microsomal CLint [6]: 24 µL/min/mg
- AUC at 168 h [7]: 322 ng·h/mL
- Cmax [8]: 3.26 ng/mL
- Cmax [9]: 48.2 ng/mL
- Cmax [10]: 2.76 ng/mL
- AUC [11]: 34.8 ng·h/mL
- Cmax [12]: 10.6 ng/mL
- Cmax [13]: 13 ng/mL
- concentration at 24 h [14]: 11.3 ng/mL
- Cmax [15]: 2.06 ng/mL
- concentration at 2 h [17]: 151 ng/g
- fraction unbound (serum albumin): 0.002
- Cmax [18]: 89.3 ng/mL
- EC50 (Hepatitis C virus [19]): 23 nM
- AUC at 168 h [20]: 1470 ng·h/mL
- AUC(0-t) at 24 h [21]: 223 ng·h/mL
- Cmax [22]: < 15 ng/mL
- Cmax [23]: 4350 ng/mL
- AUC(0-t) at 24 h [24]: 116 ng·h/mL
- AUC(0-t) at 24 h [25]: 821 ng·h/mL
- AUC(0-t) at 24 h [26]: 25.6 ng·h/mL
- AUC at 168 h [27]: 21.2 ng·h/mL
- Cmax [28]: 152 ng/mL
- half-life [29]: 1.6 h
- concentration at 24 h [30]: 2.8 ng/mL
- Cmax [31]: 93.2 ng/mL
- EC50 (Hepatitis C virus [32]): 88 nM
- AUC(0-t) at 24 h [33]: 25.4 ng·h/mL
- microsomal CLint [34]: 126 µL/min/mg
- concentration at 6 h [36]: 22 ng/g
- Cmax [37]: 20.4 ng/mL
- Ratio (Caco-2): 3.78
- concentration at 24 h [38]: 1.3 ng/mL
- AUC at 168 h [39]: 299 ng·h/mL
- Kp at 24 h [40]: 10
- half-life [41]: 1.2 h
- AUC [42]: 954 ng·h/mL
- half-life [43]: 1.1 h
- Cmax [44]: < 15 ng/mL
- Stability (Hepatocyte): 1.6 µL/min
- IC50 (Hepatitis C virus [45]): 13 nM
- Cmax [46]: 130 ng/mL
- Cmax [47]: 2 ng/mL
- solubility [48]: 6.7 µg/mL (≈ 11.7 µM)
- Cmax [49]: 2.8 ng/mL
- AUC at 168 h [50]: 1910 ng·h/mL
- AUC(0-t) at 24 h [51]: 701 ng·h/mL
- clearance [53]: 186 mL/min/kg
- Cmax [54]: 15.8 ng/mL
- concentration at 24 h [55]: 2.1 ng/mL
SMILES: Cc1cc(Cn2c(=O)c(C3=CS(=O)(=O)c4cc(NS(C)(=O)=O)ccc4N3)c(O)c3cc(F)ccc32)ccc1F
- fold change (FC) (Hepatitis C virus [16]): 9.2
- NOAEL at 168 h [35]: > 500 mg/kg/day
- CC50 [52]: > 50000 nM

Reference: ChEMBL document CHEMBL1137771, “Non-nucleoside inhibitors of HCV polymerase NS5B. Part 2: Synthesis and structure-activity relationships of benzothiazine-substituted quinolinediones” (Bioorg Med Chem Lett, 2009)
